Activity calls are given as the source filed them. No cut-off for these calls is given here.

Series [1] concerns Lewis lung carcinoma. The series can be described thus: Induction of apoptosis in mouse lewis lung carcinoma cells allografted in C57BL6 mouse assessed as Increase in TUNEL positive cells at 2 to 5 mg/kg, ig for 21 days by TUNEL assay. It counts as functional, organism-based. The following applies: dose 2-5 mg/kg, time 21.0 day.
Series [2] in a line: Cytotoxicity against mouse lewis lung carcinoma cells assessed as reduction in cell viability at 0.3 to 3000 nM and measured after 24 to 72 hrs by MTT assay. The class given is cell-based. The conditions noted are these: 3 µM, dose lower 0.3 nM, time lower 24 hrs, dose upper 3000 nM, time upper 72 hrs. A general note: Formazan colour is commonly taken as a measure of viable cells.

Series [3] relates to Lewis lung carcinoma. The series can be described thus: Immunostimulatory activity in mouse lewis lung carcinoma cells allografted in C57BL6 mouse assessed as increase in infiltration of CD8+/CD45+/CD3+ cells at 2 to 5 mg/kg, ig for 21 days by Flow cytometric analysis. It counts as functional, organism-based. The following applies: dose 2-5 mg/kg, time 21.0 day. For orientation: A flow cytometer gives signals particle by particle.

Series [4] deals with Mus musculus. The series can be described thus: Upregulation of IFNgamma protein expression in C57BL6 mouse serum allografted with mouse lewis lung carcinoma cells at 2.5 to 5 mg/kg, ig for 21 days by ELISA. The class given is functional, organism-based. The following applies: dose 2.5-5 mg/kg, time 21.0 day. A general note: An ELISA detects its analyte on a solid surface through an enzyme-linked reagent.

In series [5] the test system is Lewis lung carcinoma. The series can be described thus: Anti-tumor activity against mouse lewis lung carcinoma cells allografted in C57BL6 mouse assessed as reduction PCNA protein expression level at 2 to 5 mg/kg, ig for 21 days by immunohistochemistry analysis. The class given is functional, organism-based. The conditions noted are these: dose 2-5 mg/kg, time 21.0 day.

Series [6] relates to Lewis lung carcinoma. The series can be described thus: Immunostimulatory activity in mouse lewis lung carcinoma cells allografted in C57BL6 mouse assessed as increase in infiltration of IFNgamm+/CD4+ cells at 2 to 5 mg/kg, ig for 21 days by Flow cytometric analysis. The class given is functional, organism-based. The conditions noted are these: dose 2-5 mg/kg, time 21.0 day.

Series [7] deals with PBMC. Description: Induction of immuno-regulatory activity in CD3/CD28/PD-L1 stimulated PBMC (unknown origin) at 0.3 to 30 nM by Western blot analysis. It counts as functional, tissue-based. The conditions noted are these: Homo sapiens, dose 0.3-30 nM.
The test system of series [8] is Lewis lung carcinoma. Description: Anti-tumor activity against mouse lewis lung carcinoma cells allografted in C57BL6 mouse assessed as reduction in tumor growth at 2 to 5 mg/kg, ig for 21 days. It counts as functional, organism-based. The following applies: dose 2-5 mg/kg, time 21.0 day.
The test system of series [9] is Lewis lung carcinoma. Description: Immunostimulatory activity in mouse lewis lung carcinoma cells allografted in C57BL6 mouse assessed as increase in infiltration of CD8+ cells at 2 to 5 mg/kg, ig for 21 days by Flow cytometric analysis. The class given is functional, organism-based. The following applies: dose 2-5 mg/kg, time 21.0 day.
The test system of series [10] is Mus musculus. The series can be described thus: Toxicity in C57BL6 mouse allografted with mouse lewis lung carcinoma cells assessed as reduction body weight at 2 mg/kg, ig for 21 days. The class given is organism-based. The conditions noted are these: in vivo, po, 504 h, time 21 day.
Series [11] has as its system Mus musculus. Description: Toxicity in C57BL6 mouse allografted with mouse lewis lung carcinoma cells assessed as reduction body weight at 5 mg/kg, ig for 21 days. The class given is organism-based. The conditions noted are these: in vivo, po, 504 h, time 21 day.
The target in series [12] is T1, Programmed cell death protein 1/Programmed cell death 1 ligand 1 (Homo sapiens, UniProt Q15116+Q9NZQ7). Description: Potency index, ratio of BMS-202 IC50 to test compound IC50 for inhibition of human PD-1/PD-L1 interaction assessed as disruption of PD-1/PD-L1 complex incubated for 2 hrs by Tag-1 Eu3+ and anti-Tag2-XL665 based HTRF assay. It counts as protein-complex assay.
T1 sequence (Q15116 whole entry): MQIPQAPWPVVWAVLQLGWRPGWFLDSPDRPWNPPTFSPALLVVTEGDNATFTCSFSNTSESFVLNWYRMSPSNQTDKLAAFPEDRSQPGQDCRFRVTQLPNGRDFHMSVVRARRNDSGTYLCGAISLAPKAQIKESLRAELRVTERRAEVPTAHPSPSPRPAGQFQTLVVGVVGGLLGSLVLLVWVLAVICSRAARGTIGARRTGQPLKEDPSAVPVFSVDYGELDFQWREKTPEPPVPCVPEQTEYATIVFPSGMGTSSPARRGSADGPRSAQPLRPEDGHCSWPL
T1 sequence (Q9NZQ7 whole entry): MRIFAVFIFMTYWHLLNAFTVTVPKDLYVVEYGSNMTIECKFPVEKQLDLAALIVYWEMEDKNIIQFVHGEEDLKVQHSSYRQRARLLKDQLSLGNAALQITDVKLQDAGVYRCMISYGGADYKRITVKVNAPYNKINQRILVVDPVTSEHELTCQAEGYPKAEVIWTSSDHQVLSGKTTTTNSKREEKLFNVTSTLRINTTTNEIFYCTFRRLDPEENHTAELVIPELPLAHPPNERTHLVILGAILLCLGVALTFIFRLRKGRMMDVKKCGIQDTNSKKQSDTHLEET

The target of series [13] is Programmed cell death 1 ligand 1 (Mus musculus) (UniProt Q9EP73). Description: Binding affinity to PDL1 in mouse lewis lung carcinoma cells assessed as thermal stability at 0.1 to 100 nM at 58 degC after 12 hrs by CESTA analysis. The class given is tissue-based. The conditions noted are these: Lewis lung carcinoma cell line, dose 0.1-100 nM.
Chain of Programmed cell death 1 ligand 1 (Mus musculus) (Q9EP73 whole entry): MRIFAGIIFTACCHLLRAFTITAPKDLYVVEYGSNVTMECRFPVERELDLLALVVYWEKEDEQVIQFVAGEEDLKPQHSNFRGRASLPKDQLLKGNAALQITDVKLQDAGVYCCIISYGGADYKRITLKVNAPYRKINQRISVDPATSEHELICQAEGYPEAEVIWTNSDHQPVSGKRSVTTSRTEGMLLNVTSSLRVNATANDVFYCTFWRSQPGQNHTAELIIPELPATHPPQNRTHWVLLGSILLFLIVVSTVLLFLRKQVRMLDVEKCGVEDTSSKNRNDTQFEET
The nature of series [14]: Anti-tumor activity against mouse lewis lung carcinoma cells allografted in C57BL6 mouse assessed as reduction in tumor growth at 2 mg/kg, ig for 21 days relative to control. It counts as functional. The conditions noted are these: po, 504 h, time 21 day, read-out: TGI.
Series [15] relates to Lewis lung carcinoma. Description: Immunostimulatory activity in mouse lewis lung carcinoma cells allografted in C57BL6 mouse assessed as increase in infiltration of total immune cells at 2 to 5 mg/kg, ig for 21 days by Flow cytometric analysis. It counts as functional, organism-based. The following applies: dose 2-5 mg/kg, time 21.0 day.
Series [16] has as its system PBMC. Description: Upregulation of IFNgamma protein expression in CD3/CD28/PD-L1 stimulated PBMC (unknown origin) at 0.3 to 30 nM by ELISA. The following applies: Homo sapiens, dose 0.3-30 nM. The class given is functional, tissue-based.
Series [17] has as its target T1, Programmed cell death protein 1/Programmed cell death 1 ligand 1. Description: Inhibition of human PD-1/PD-L1 interaction assessed as disruption of PD-1/PD-L1 complex incubated for 2 hrs by Tag-1 Eu3+ and anti-Tag2-XL665 based HTRF assay. The class given is protein-complex assay.
The test system of series [18] is T-cell. Description: Upregulation of IFNgamma protein expression in CON-A stimulated C57BL6 mouse lymphnode T cell co-cultured with Lewis lung carcinoma cell line at 0.3 to 30 nM by ELISA. The class given is functional, tissue-based. The following applies: dose 0.3-30 nM.
Series [19] concerns Lewis lung carcinoma. Description: Immunostimulatory activity in mouse lewis lung carcinoma cells allografted in C57BL6 mouse assessed as increase in infiltration of T cells at 2 to 5 mg/kg, ig for 21 days by Flow cytometric analysis. It counts as functional, organism-based. The conditions noted are these: dose 2-5 mg/kg, time 21.0 day.
Series [20] deals with T-cell. The series can be described thus: Cytotoxicity against C57BL6 mouse lymphnode T cell cells assessed as reduction in cell viability at 3000 nM and measured after 24 to 72 hrs by MTT assay. The class given is cell-based. The following applies: 3 µM, time 24-72 hrs.
Series [21] addresses Programmed cell death 1 ligand 1 (Mus musculus) (UniProt Q9EP73). The series can be described thus: Binding affinity to PDL1 in mouse lewis lung carcinoma cells assessed as thermal stability at 3 nM at 43 to 70 degC after 12 hrs by CESTA analysis. The conditions noted are these: Lewis lung carcinoma cell line.
Series [22] is described as follows: Anti-tumor activity against mouse lewis lung carcinoma cells allografted in C57BL6 mouse assessed as reduction in tumor growth at 5 mg/kg, ig for 21 days relative to control. The conditions noted are these: po, 504 h, time 21 day, read-out: TGI. The class given is functional.

Usually IC50 stands for the concentration that gives 50% inhibition. Take `Cc1c(COc2cc(OCc3cccc(C#N)c3)c(CN[C@H](C(=O)O)[C@@H](C)O)cc2[N+](=O)[O-])cccc1-c1ccccc1`: the Activity result is “Dose-Dependent Effect” in the series with Lewis lung carcinoma [1]; “Non-Toxic” in series [2]; “Dose-Dependent Effect” with Mus musculus [4]; “Dose-Dependent Effect” in the series with Lewis lung carcinoma [5]; “Dose-Dependent Effect” in the series on PBMC [7]; “Non-Toxic” in the series with Mus musculus [10]. Also, the Activity result is “Non-Toxic” in the series on Mus musculus [11]; “Dose-Dependent Effect” in [13]; “Dose-Dependent Effect” with PBMC [16]; “Dose-Dependent Effect” in the series on T-cell [18]; “Non-Toxic” in the series with T-cell [20]. In addition, the result (in the series with Lewis lung carcinoma [3]; with Lewis lung carcinoma [6]; in the series with Lewis lung carcinoma [9]; in the series with Lewis lung carcinoma [15]; in the series with Lewis lung carcinoma [19]; in series [21]) was Active. In addition, the TGI entry in the series on Lewis lung carcinoma [8] was “Dose-Dependent Effect”. The Ratio IC50 in [12] is 25. For the same compound, the inhibition in vivo at 2 mg/kg in series [14] was determined as 17.3%. Moreover, the IC50 in series [17] was 2.7 nM. For the same compound, the inhibition in vivo at 5 mg/kg in [22] was 48.5%.

For the origin of these results see ChEMBL document CHEMBL5033993, “Design, Synthesis, and Evaluation of o-(Biphenyl-3-ylmethoxy)nitrophenyl Derivatives as PD-1/PD-L1 Inhibitors with Potent Anticancer Efficacy In Vivo” (J Med Chem, 2021).
